Assay results reported in publication PMC9518264, “Design and synthesis of novel quinazolinone-based derivatives as EGFR inhibitors with antitumor activity” (Journal of Enzyme Inhibition and Medicinal Chemistry, 2022).

Legend:
CCRF-CEM = assay: cells; assay type: cell-based; details: Homo sapiens, 10 μM, read-out: growth inhibition % (GI%)
K-562 = assay: cells; assay type: cell-based; details: Homo sapiens, K562; K-562; 10 μM; read-out: growth inhibition % (GI%)
MOLT-4 = assay: cells; assay type: cell-based; details: Homo sapiens; MOLT-4; 10 μM; read-out: growth inhibition % (GI%)
RPMI-8226 = assay: cells; assay type: cell-based; details: Homo sapiens; RPMI-8226; 10 μM; read-out: growth inhibition % (GI%)
SR = assay: cells; assay type: cell-based; details: Homo sapiens, 10 μM, read-out: growth inhibition % (GI%)
A549/ATCC = assay: cells; assay type: cell-based; details: Homo sapiens; A549/ATCC; 10 μM; read-out: growth inhibition % (GI%)
EKVX = assay: cells; assay type: cell-based; details: Homo sapiens, 10 μM, read-out: growth inhibition % (GI%)
HOP-92 = assay: cells; assay type: cell-based; details: Homo sapiens; HOP-92; 10 μM; read-out: growth inhibition % (GI%)
NCI-H226 = assay: cells; assay type: cell-based; details: Homo sapiens; NCI-H226; 10 μM; read-out: growth inhibition % (GI%)
NCI-H322M = assay: cells; assay type: cell-based; details: Homo sapiens, 10 μM, read-out: growth inhibition % (GI%)
NCI-H460 = assay: cells; assay type: cell-based; details: Homo sapiens; NCI-H460; 10 μM; read-out: growth inhibition % (GI%)
NCI-H522 = assay: cells; assay type: cell-based; details: Homo sapiens; NCI-H522; 10 μM; read-out: growth inhibition % (GI%)
COLO-205 = assay: cells; assay type: cell-based; details: Homo sapiens; COLO-205; 10 μM; read-out: growth inhibition % (GI%)
HCC-2998 = assay: cells; assay type: cell-based; details: Homo sapiens; HCC-2998; 10 μM; read-out: growth inhibition % (GI%)
HCT-116 = assay: cells; assay type: cell-based; details: Homo sapiens; HCT-116; 10 μM; read-out: growth inhibition % (GI%)
HCT-15 = assay: cells; assay type: cell-based; details: Homo sapiens; HCT-15; 10 μM; read-out: growth inhibition % (GI%)
HT29 = assay: cells; assay type: cell-based; details: Homo sapiens, HT-29; HT29; 10 μM; read-out: growth inhibition % (GI%)
KM12 = assay: cells; assay type: cell-based; details: Homo sapiens; KM12; 10 μM; read-out: growth inhibition % (GI%)
SF-268 = assay: cells; assay type: cell-based; details: Homo sapiens; SF-268; 10 μM; read-out: growth inhibition % (GI%)
SF-295 = assay: cells; assay type: cell-based; details: Homo sapiens; SF-295; 10 μM; read-out: growth inhibition % (GI%)
SF-539 = assay: cells; assay type: cell-based; details: Homo sapiens; SF-539; 10 μM; read-out: growth inhibition % (GI%)
SNB-19 = assay: cells; assay type: cell-based; details: Homo sapiens; SNB-19; 10 μM; read-out: growth inhibition % (GI%)
SNB-75 = assay: cells; assay type: cell-based; details: Homo sapiens; SNB-75; 10 μM; read-out: growth inhibition % (GI%)
U251 = assay: cells; assay type: cell-based; details: Homo sapiens, U-251; U251; 10 μM; read-out: growth inhibition % (GI%)
LOX IMIV = assay: cells; assay type: cell-based; details: Homo sapiens, 60 cell; LOX IMIV; 10 μM; read-out: growth inhibition % (GI%)
MALME-3M = assay: cells; assay type: cell-based; details: Homo sapiens; MALME-3M; 10 μM; read-out: growth inhibition % (GI%)
MDA-MB-435 = assay: cells; assay type: cell-based; details: Homo sapiens; MDA-MB-435; 10 μM; read-out: growth inhibition % (GI%)
SK-MEL-2 = assay: cells; assay type: cell-based; details: Homo sapiens; SK-MEL-2; 10 μM; read-out: growth inhibition % (GI%)
SK-MEL-5 = assay: cells; assay type: cell-based; details: Homo sapiens; SK-MEL-5; 10 μM; read-out: growth inhibition % (GI%)
UACC-257 = assay: cells; assay type: cell-based; details: Homo sapiens; UACC-257; 10 μM; read-out: growth inhibition % (GI%)
UACC-62 = assay: cells; assay type: cell-based; details: Homo sapiens; UACC-62; 10 μM; read-out: growth inhibition % (GI%)
IGROV1 = assay: cells; assay type: cell-based; details: Homo sapiens, IGROV-1; IGROV1; 10 μM; read-out: growth inhibition % (GI%)
OVCAR-4 = assay: cells; assay type: cell-based; details: Homo sapiens; OVCAR-4; 10 μM; read-out: growth inhibition % (GI%)
OVCAR-8 = assay: cells; assay type: cell-based; details: Homo sapiens; OVCAR-8; 10 μM; read-out: growth inhibition % (GI%)
NCI/ADR-RES = assay: cells; assay type: cell-based; details: Homo sapiens, 10 μM, read-out: growth inhibition % (GI%)
SK-OV-3 = assay: cells; assay type: cell-based; details: Homo sapiens; SK-OV-3; 10 μM; read-out: growth inhibition % (GI%)
A498 = assay: cells; assay type: cell-based; details: Homo sapiens; A498; 10 μM; read-out: growth inhibition % (GI%)
SN12C = assay: cells; assay type: cell-based; details: Homo sapiens, 10 μM, read-out: growth inhibition % (GI%)
TK-10 = assay: cells; assay type: cell-based; details: Homo sapiens; TK-10; 10 μM; read-out: growth inhibition % (GI%)
UO-31 = assay: cells; assay type: cell-based; details: Homo sapiens; UO-31; 10 μM; read-out: growth inhibition % (GI%)
PC-3 = assay: cells; assay type: cell-based; details: Homo sapiens; PC-3; 10 μM; read-out: growth inhibition % (GI%)
MCF7 = assay: cells; assay type: cell-based; details: Homo sapiens; MCF7; 10 μM; read-out: growth inhibition % (GI%)
HS 578T = assay: cells; assay type: cell-based; details: Homo sapiens; HS 578T; 10 μM; read-out: growth inhibition % (GI%)
BT-549 = assay: cells; assay type: cell-based; details: Homo sapiens; BT-549; 10 μM; read-out: growth inhibition % (GI%)
T-47D = assay: cells; assay type: cell-based; details: Homo sapiens, T47D; T-47D; 10 μM; read-out: growth inhibition % (GI%)
[1] = tested on: panel of 60 tumour cell lines; assay: NCI 60 cell line antiproliferative screening (SRB), whole panel or subpanels (means, ranges, words); assay type: cell-based, human
OVCAR-3 = assay: NCI 60 cell line antiproliferative screening (SRB), Ovarian cancer; details: Homo sapiens, OVCAR-3, read-out: growth inhibition % (GI%)

For `O=C(CSc1nc2ccccc2c(=O)n1-c1ccc(Cl)cc1)NN=Cc1ccc(Oc2ccc(Br)cc2)cc1` [6e, N'-(4–(4-bromophenoxy)benzylidene)-2-((3–(4-chlorophenyl)-4-oxo-3,4-dihydroquinazolin-2-yl)thio)acetohydrazide], the inhibition at 10 µM (CCRF-CEM) was < 15%, the inhibition at 10 µM (K-562) was < 15% and the inhibition at 10 µM (MOLT-4) was < 15%. For the same compound, the inhibition at 10 µM (RPMI-8226) was < 15%, the inhibition at 10 µM (SR) was < 15% and the inhibition at 10 µM (A549/ATCC) was < 15%. The inhibition at 10 µM (EKVX) was < 15%, the inhibition at 10 µM (HOP-92) was < 15% and the inhibition at 10 µM (NCI-H226) was < 15%. For the same compound, the inhibition at 10 µM (NCI-H322M) was < 15%, the inhibition at 10 µM (NCI-H460) was < 15% and the inhibition at 10 µM (NCI-H522) was 13.4%. The inhibition at 10 µM (COLO-205) was < 15%, the inhibition at 10 µM (HCC-2998) was < 15% and the inhibition at 10 µM (HCT-116) was < 15%. For the same compound, the inhibition at 10 µM (HCT-15) was < 15%, the inhibition at 10 µM (HT29) was < 15% and the inhibition at 10 µM (KM12) was < 15%. For the same compound, the inhibition at 10 µM (SF-268) was < 15%, the inhibition at 10 µM (SF-295) was < 15% and the inhibition at 10 µM (SF-539) was < 15%. The inhibition at 10 µM (SNB-19) was < 15%, the inhibition at 10 µM (SNB-75) was < 15% and the inhibition at 10 µM (U251) was < 15%. For the same compound, the inhibition at 10 µM (LOX IMIV) was < 15%, the inhibition at 10 µM (MALME-3M) was < 15% and the inhibition at 10 µM (MDA-MB-435) was < 15%. The inhibition at 10 µM (SK-MEL-2) was < 15%, the inhibition at 10 µM (SK-MEL-5) was < 15% and the inhibition at 10 µM (UACC-257) was < 15%. The inhibition at 10 µM (UACC-62) was < 15%, the inhibition at 10 µM (IGROV1) was < 15% and the inhibition at 10 µM (OVCAR-4) was < 15%. The inhibition at 10 µM (OVCAR-8) was < 15%, the inhibition at 10 µM (NCI/ADR-RES) was < 15% and the inhibition at 10 µM (SK-OV-3) was < 15%. The inhibition at 10 µM (A498) was 15.7%, the inhibition at 10 µM (SN12C) was < 15% and the inhibition at 10 µM (TK-10) was < 15%. For the same compound, the inhibition at 10 µM (UO-31) was 20.8%, the inhibition at 10 µM (PC-3) was < 15% and the inhibition at 10 µM (MCF7) was < 15%. The inhibition at 10 µM (HS 578T) was < 15%, the inhibition at 10 µM (BT-549) was < 15% and the inhibition at 10 µM (T-47D) was < 15%. The “antiproliferative activity against all tested cell lines” value ([1]; 10 μM single dose) was “abolishing the antiproliferative activity”, the inhibition at 10 µM ([1]; Homo sapiens, 60 cell, mean over the cell line panel, 10 μM, read-out: Mean growth inhibition % (mean GI%)) was < 0% and the inhibition at 10 µM (OVCAR-3) was < 15%.
